Measurements from US7265130B2, “NPY Y5 antagonist” (Shionogi & Co., Ltd., priority 1999, dated 2007).

Legend:
human NPY Y5 receptor [1] = target: T1, human NPY Y5 receptor (Homo sapiens, UniProt Q15761); assay: Affinity for NPY Y5 receptor ([125I] peptide YY binding, CHO cell membranes); conditions: inhibition of specific [125I] peptide YY binding, membranes of CHO cells expressing NPY Y5 receptor
T1 construct: expressed in transfected cells
T1 sequence (Q15761 1-445): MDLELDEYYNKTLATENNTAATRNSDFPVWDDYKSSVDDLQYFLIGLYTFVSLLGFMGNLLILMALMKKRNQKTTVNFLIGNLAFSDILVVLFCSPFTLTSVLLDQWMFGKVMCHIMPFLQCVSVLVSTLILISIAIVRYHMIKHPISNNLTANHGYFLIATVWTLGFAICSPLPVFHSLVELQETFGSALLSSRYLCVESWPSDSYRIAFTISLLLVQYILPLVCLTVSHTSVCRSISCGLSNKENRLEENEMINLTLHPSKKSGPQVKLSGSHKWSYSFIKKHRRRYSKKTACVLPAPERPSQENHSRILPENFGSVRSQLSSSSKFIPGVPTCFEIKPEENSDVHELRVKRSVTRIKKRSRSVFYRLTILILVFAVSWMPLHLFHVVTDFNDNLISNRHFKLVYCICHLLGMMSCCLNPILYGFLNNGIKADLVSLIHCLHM
In short: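 IC50 is inhibition of specific [125I] peptide YY binding (60 pM final; non-specific defined by 200 nM peptide YY), read by gamma counting after filtration. Binding used stably transfected CHO-cell membranes with compound, 2 hours at 25° C, pH 7.4 HEPES-Hanks/0.1% BSA.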

human NPY Y5 receptor [2] = target: T1, human NPY Y5 receptor; assay: cAMP production inhibitory activity in CHO cells; assay type: cell-based; conditions: against 50 nM NPY inhibition of forskolin stimulated cAMP, CHO cells expressing human NPY Y5 receptor
In short: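 Supernatant cAMP quantified by EIA after HCl stop, following 30 min stimulation with 10 μM forskolin and 50 nM NPY. Compound was added 5 min before stimulation to human NPY Y5-expressing CHO cells pretreated 20 min at 37 °C with 2.5 mM isobutylmethylxanthine.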

SMILES | IC50 (human NPY Y5 receptor [1]) | IC50 (human NPY Y5 receptor [2])
CC(C)(C)S(=O)(=O)NC1CCC(C(=O)Nc2ccc(N3CCC(O)(c4ccc(Cl)cc4)CC3)cc2)CC1 (stereo not shown) [Ia-65] | 1.1 nM | 11 nM
CC(C)(C)S(=O)(=O)NC1CCC(C(=O)Nc2nnc(-c3ccccc3)s2)CC1 (stereo not shown) [Ia-66] | 0.59 nM | 3.2 nM
CC(C)(C)S(=O)(=O)NC1CCN(C(=O)Nc2ccc3oc(=O)ccc3c2)CC1 [Ia-68] | 9.5 nM | 180 nM
Cn1nnnc1-c1ccc(NC(=O)[C@H]2CC[C@H](NS(=O)(=O)C(C)(C)C)CC2)cc1 [Ia-69] | 2.7 nM | 33 nM
CC(C)(C)S(=O)(=O)NC1CCN(C(=O)Nc2cnc(-c3ccccc3)cn2)CC1 [Ia-70] | 1.5 nM | 31 nM
CC(C)(C)S(=O)(=O)N[C@H]1CC[C@H](C(=O)Nc2ccc(-c3nnnn3-c3ccccc3)cc2)CC1 [Ia-71] | 1.3 nM | 12 nM
CC(C)(C)S(=O)(=O)NCCCCC(=O)Nc1ccc2oc(=O)ccc2c1 [Ia-78] | 2 nM | 150 nM
CC(C)S(=O)(=O)N[C@H]1CC[C@H](C(=O)Nc2ccc3c(c2)C(=O)N(c2ccccc2)C3=O)CC1 [Ia-80] | 0.44 nM | 3 nM
CC(C)(C)S(=O)(=O)NCCCCC(=O)Nc1ccc2c(c1)C(=O)N(c1ccccc1)C2=O [Ia-81] | 2.7 nM | 4.5 nM
C[C@@H]1CN(c2ccc(NC(=O)CCCCNS(=O)(=O)C(C)(C)C)c(F)c2)C[C@H](C)O1 [Ia-83] | 1.2 nM | 53 nM
CC(C)S(=O)(=O)NC1CCC(C(=O)Nc2ccc(N3CCC(O)(c4ccc(Cl)cc4)CC3)cc2)CC1 (stereo not shown) [Ia-84] | 0.25 nM | 13 nM
CC(C)(C)S(=O)(=O)NCCCCC(=O)Nc1ccc(N2CCC(O)(c3ccc(Cl)cc3)CC2)cc1 [Ia-85] | 0.22 nM | 14 nM
CC(C)S(=O)(=O)NCCCCC(=O)Nc1ccc(N2CCC(O)(c3ccc(Cl)cc3)CC2)cc1 [Ia-86] | 0.73 nM | 11 nM
CC(C)S(=O)(=O)NC1CCC(C(=O)Nc2ccc3c(c2)C(=O)N(C)C3=O)CC1 (stereo not shown) [Ia-87] | 0.49 nM | 61 nM
CC(C)S(=O)(=O)NC1CCC(C(=O)Nc2ccc3c(c2)OCO3)CC1 (stereo not shown) [Ia-88] | 0.62 nM | 48 nM
CN1C(=O)c2ccc(NC(=O)CCCCNS(=O)(=O)C(C)(C)C)cc2C1=O [Ia-91] | 4 nM | 150 nM
CC(C)(C)S(=O)(=O)NC1CCC(C(=O)Nc2ccc3scnc3c2)CC1 (stereo not shown) [Ia-106] | 1.9 nM | 24 nM
CC(C)(C)S(=O)(=O)NC1CCC(C(=O)Nc2ccc(-c3ccccc3)cc2)CC1 (stereo not shown) [Ia-107] | 0.14 nM | 1.3 nM
CC(C)(C)S(=O)(=O)NC1CCC(C(=O)Nc2cccc3c2Cc2ccccc2-3)CC1 (stereo not shown) [Ia-109] | 0.6 nM | 3.9 nM
CC(C)(C)S(=O)(=O)NC1CCC(C(=O)Nc2ccc(N3CC=CC3)cc2)CC1 (stereo not shown) [Ia-110] | 0.3 nM | 1.1 nM
CC(C)(C)S(=O)(=O)NC1CCC(C(=O)Nc2cccc3c2CCCC3)CC1 (stereo not shown) [Ia-111] | 5.1 nM | 28 nM

SMILES | IC50 (human NPY Y5 receptor [1]) | IC50 (human NPY Y5 receptor [2])
CC(C)(C)S(=O)(=O)Nc1ccc(C(=O)Nc2ccc3c(c2)CCC3)cc1 [Ia-125] | 4.1 nM | 46 nM
CC(C)(C)S(=O)(=O)Nc1ccc(C(=O)Nc2ccc3c(c2)OCCO3)cc1 [Ia-127] | 6.1 nM | 160 nM
CC(C)(C)S(=O)(=O)NC1CCC(C(=O)Nc2cccc(C(F)(F)F)c2)CC1 (stereo not shown) [Ia-129] | 1.3 nM | 26 nM
CC(C)(C)S(=O)(=O)NC1CCC(C(=O)Nc2ccc3ccsc3c2)CC1 (stereo not shown) [Ia-130] | 0.21 nM | 3 nM
CC(C)(C)S(=O)(=O)Nc1ccc(C(=O)Nc2ccc3ccsc3c2)cc1 [Ia-131] | 1.3 nM | 17 nM
CC(C)NC(=O)c1cccc(NC(=O)c2ccc(NS(=O)(=O)C(C)(C)C)cc2)c1 [Ia-132] | 2.8 nM | 76 nM
CC(C)(C)S(=O)(=O)Nc1ccc(C(=O)Nc2ccc3sccc3c2)cc1 [Ia-133] | 1.7 nM | 8.8 nM
CC(C)(C)S(=O)(=O)NC1CCC(C(=O)Nc2ccc(F)cc2F)CC1 (stereo not shown) [Ia-135] | 8.2 nM | 49 nM
CC(C)(C)S(=O)(=O)NC1CCC(C(=O)Nc2cc(F)cc(F)c2)CC1 (stereo not shown) [Ia-136] | 1.6 nM | 13 nM
CC(C)(C)S(=O)(=O)NC1CCC(C(=O)Nc2ccc(F)c(F)c2)CC1 (stereo not shown) [Ia-138] | 2.2 nM | 28 nM
CC(C)S(=O)(=O)NC1CCC(C(=O)Nc2ccc3c(c2)CCC3)CC1 (stereo not shown) [Ia-141] | 1 nM | 5.7 nM
CC(C)(C)S(=O)(=O)Nc1ccc(C(=O)Nc2ccc(-c3ccccc3)cc2)cc1 [Ia-158] | 0.71 nM | 1.7 nM
CC(C)(C)S(=O)(=O)NC1CCC(C(=O)Nc2ccc(F)c(C(F)(F)F)c2)CC1 (stereo not shown) [Ia-160] | 0.76 nM | 140 nM
Cc1ccc(NC(=O)C2CCC(NS(=O)(=O)C(C)(C)C)CC2)cc1F (stereo not shown) [Ia-161] | 1.9 nM | 18 nM
CC(C)S(=O)(=O)Nc1ccc(C(=O)Nc2ccc3c(c2)CCC3)cc1 [Ia-163] | 7 nM | 400 nM
CC(C)(C)S(=O)(=O)NC1CCC(C(=O)Nc2ccc(OC3CCCC3)cc2)CC1 (stereo not shown) [Ia-164] | 0.38 nM | 4.7 nM
CC(C)(C)S(=O)(=O)NC1CCC(C(=O)Nc2cccc(S(=O)(=O)NC3CCCCC3)c2)CC1 (stereo not shown) [Ia-168] | 0.95 nM | 13 nM
CC(C)(C)S(=O)(=O)NC1CCC(C(=O)Nc2ccc(S(=O)(=O)NC3CCCCC3)cc2)CC1 (stereo not shown) [Ia-169] | 1.9 nM | 88 nM
CC(C)(C)S(=O)(=O)NC1CCC(C(=O)Nc2ccc(N3CCCCC3=O)cc2)CC1 (stereo not shown) [Ia-173] | 6.9 nM | 140 nM
CC(C)(C)S(=O)(=O)NC1CCC(C(=O)Nc2ccc(OCC3CC3)cc2)CC1 (stereo not shown) [Ia-174] | 0.35 nM | 5.4 nM
CC(C)(C)S(=O)(=O)NC1CCC(C(=O)Nc2ccc(OC3CCCCC3)cc2)CC1 (stereo not shown) [Ia-175] | 0.49 nM | 9.2 nM

SMILES | IC50 (human NPY Y5 receptor [1]) | IC50 (human NPY Y5 receptor [2])
CC(C)(C)S(=O)(=O)NC1CCC(C(=O)Nc2cccc(OC3CCCCC3)c2)CC1 (stereo not shown) [Ia-176] | 0.63 nM | 5.1 nM
CC(C)(C)S(=O)(=O)NC1CCC(C(=O)Nc2ccc(-c3ccco3)cc2)CC1 (stereo not shown) [Ia-177] | 0.49 nM | 7.5 nM
CC(C)(C)S(=O)(=O)NC1CCC(C(=O)Nc2ccc(-c3ccno3)cc2)CC1 (stereo not shown) [Ia-179] | 0.89 nM | 19 nM
CC(C)NS(=O)(=O)c1ccc(NC(=O)C2CCC(NS(=O)(=O)C(C)(C)C)CC2)cc1 (stereo not shown) [Ia-180] | 1.9 nM | 11 nM
CC(C)NS(=O)(=O)c1cccc(NC(=O)C2CCC(NS(=O)(=O)C(C)(C)C)CC2)c1 (stereo not shown) [Ia-181] | 7.7 nM | 25 nM
CC(C)(C)S(=O)(=O)NC1CCC(C(=O)Nc2cccc(OCC3CC3)c2)CC1 (stereo not shown) [Ia-182] | 0.24 nM | 2.1 nM
CC(C)(C)S(=O)(=O)NC1CCC(C(=O)Nc2ccc(N3CCCC3=O)cc2)CC1 (stereo not shown) [Ia-183] | 1.9 nM | 7.8 nM
CC(C)(C)S(=O)(=O)NC1CCC(C(=O)Nc2ccc(S(=O)(=O)N3CCCCC3)cc2)CC1 (stereo not shown) [Ia-185] | 0.94 nM | 4.4 nM
CC(C)(C)S(=O)(=O)NC1CCC(C(=O)Nc2cccc(S(=O)(=O)N3CCCCC3)c2)CC1 (stereo not shown) [Ia-186] | 0.93 nM | 12 nM
CC(C)(C)NC(=O)c1ccc(NC(=O)C2CCC(NS(=O)(=O)C(C)(C)C)CC2)cc1 (stereo not shown) [Ia-187] | 1.9 nM | 60 nM
CCC(C)NC(=O)c1ccc(NC(=O)C2CCC(NS(=O)(=O)C(C)(C)C)CC2)cc1 (stereo not shown) [Ia-188] | 0.75 nM | 28 nM
CC(C)(C)S(=O)(=O)NC1CCC(C(=O)Nc2cccc(NC(=O)C3CCCCC3)c2)CC1 (stereo not shown) [Ia-189] | 3.5 nM | 95 nM
CC(C)(C)S(=O)(=O)NC1CCC(C(=O)Nc2ccc(NC(=O)C3CCCCC3)cc2)CC1 (stereo not shown) [Ia-190] | 0.34 nM | 1000 nM
CC(C)NC(=O)c1ccc(NC(=O)c2ccc(NS(=O)(=O)C(C)(C)C)cc2)cc1 [Ia-191] | 0.49 nM | 220 nM
CC(C)NC(=O)c1cccc(NC(=O)C2CCC(NS(=O)(=O)C(C)C)CC2)c1 (stereo not shown) [Ia-192] | 5.9 nM | 200 nM
CC(C)NC(=O)c1ccc(NC(=O)C2CCC(NS(=O)(=O)C(C)C)CC2)cc1 (stereo not shown) [Ia-193] | 1.4 nM | 43 nM
CC(C)S(=O)(=O)NC1CCC(C(=O)Nc2ccc(-c3ccco3)cc2)CC1 (stereo not shown) [Ia-194] | 0.22 nM | 8.1 nM
CC(C)(C)S(=O)(=O)NC1CCC(C(=O)Nc2ccc(-c3cnco3)cc2)CC1 (stereo not shown) [Ia-195] | 1.4 nM | 31 nM
CC(C)S(=O)(=O)NC1CCC(C(=O)Nc2ccc(OCC3CC3)cc2)CC1 (stereo not shown) [Ia-196] | 0.39 nM | 1.3 nM
CC(C)S(=O)(=O)NC1CCC(C(=O)Nc2cccc(OCC3CC3)c2)CC1 (stereo not shown) [Ia-197] | 0.44 nM | 2.5 nM
